Test results reported in ChEMBL document CHEMBL4680321, “Novel indolylarylsulfone derivatives as covalent HIV-1 reverse transcriptase inhibitors specifically targeting the drug-resistant mutant Y181C” (Bioorg Med Chem, 2021).
Active and inactive are the calls of the source. The rule behind the calls is not given here.

Experiments:
[1] = Cytotoxicity against human MT4 cells assessed as reduction in cell viability incubated for 5 days by MTT assay; assay type: cell-based; details: time 5 day
[2] = tested on: Human immunodeficiency virus 2; test: Antiviral activity against HIV2 ROD infected in human MT-4 cells assessed as reduction in virus-induced cytopathic effect incubated for 5 days by MTT assay; assay type: functional, organism-based; details: MT4, time 5.0 day
[3] = tested on: Human immunodeficiency virus 1; test: Antiviral activity against HIV-3B infected in human MT-4 cells assessed as reduction in virus-induced cytopathic effect incubated for 5 days by MTT assay; assay type: functional, organism-based; details: Human immunodeficiency virus 1, 3B, MT4, 120 h
[4] = tested on: Human immunodeficiency virus 1; test: Antiviral activity against HIV-3B harboring reverse transcriptase Y181C mutant infected in human MT-4 cells assessed as reduction in virus-induced cytopathic effect incubated for 5 days by MTT assay; assay type: functional, organism-based; details: Human immunodeficiency virus 1, 3B, MT4, 120 h
[5] = target: Human immunodeficiency virus type 1 reverse transcriptase (Human immunodeficiency virus 1, UniProt Q72547); test: Inhibition of recombinant HIV-1 BH10 reverse transcriptase using D38/[32P]25PGA as template-primer incubated for 5 mins in presence of DTT followed by dTTP addition and measured after 15 to 30 sec by nucleotide incorporation assay; parameters: species or system Human immunodeficiency virus type 1 BH10
[6] = Selectivity index, ratio of EC50 for HIV-3B infected in human MT-4 cells to EC50 for HIV-3B harboring reverse transcriptase Y181C mutant infected in human MT-4 cells; assay type: functional, Human immunodeficiency virus 1
[7] = Stability of compound in PBS buffer at pH 7.4 at 2.5 mM incubated for 24 hrs by reverse phase HPLC analysis; assay type: physicochemical; details: pH 7.4, 24 h, 2500 µM
[8] = Stability of compound in PBS buffer at pH 2 at 2.5 mM incubated for 24 hrs by reverse phase HPLC analysis; assay type: physicochemical; details: pH 2, 24 h, 2500 µM

Q: Which CC50 at 120 h [1] does the source give for C=CS(=O)(=O)NC1CCN(S(=O)(=O)c2c(C(N)=O)[nH]c3ccc(Br)cc23)CC1 here?
A: 6.5 µM

Q: And the Activity [2]?
A: inactive

Q: What about the EC50 [3] of the same compound?
A: > 6.5 µM

Q: Which results are given for C=CC(=O)N[C@@H]1CCN(S(=O)(=O)c2c(C(N)=O)[nH]c3ccc(Br)cc23)C1?
A: CC50 at 120 h [1]: 178 µM; Activity [2]: inactive; EC50 [3]: > 178 µM

Q: Which EC50 [4] does the source give for C=CS(=O)(=O)N1CCC[C@@H](NS(=O)(=O)c2c(C(N)=O)[nH]c3ccc(Br)cc23)C1 here?
A: 40.7 µM

Q: And the CC50 at 120 h [1]?
A: 29 µM

Q: What about the IC50 [5] of the same compound?
A: > 100 µM

Q: And the Activity [2]?
A: inactive

Q: What about the “Ratio EC50” value [6] of the same compound?
A: 7.7

Q: What about the EC50 [3] of the same compound?
A: > 29 µM

Q: Which Stabilty [7] does the source give for C=CS(=O)(=O)N1CC[C@H](NS(=O)(=O)c2c(C(N)=O)[nH]c3ccc(Br)cc23)C1 here?
A: Stable

Q: What about the Stabilty [8] of the same compound?
A: Stable

Q: What about the EC50 [4] of the same compound?
A: 22 µM

Q: And the CC50 at 120 h [1]?
A: 16 µM

Q: What about the IC50 [5] of the same compound?
A: > 100 µM

Q: What about the Activity [2] of the same compound?
A: inactive

Q: What about the “Ratio EC50” value [6] of the same compound?
A: 9.3

Q: What about the EC50 [3] of the same compound?
A: 9.74 µM

Q: For C=CC(=O)NC1CCN(S(=O)(=O)c2c(C(N)=O)[nH]c3ccc(Br)cc23)CC1, which CC50 at 120 h [1] is on record?
A: > 274 µM

Q: What about the Activity [2] of the same compound?
A: inactive

Q: And the EC50 [3]?
A: 125 µM

Q: Which CC50 at 120 h [1] does the source give for C=CC(=O)N1CC[C@@H](NS(=O)(=O)c2c(C(N)=O)[nH]c3ccc(Br)cc23)C1 here?
A: 51.8 µM

Q: What about the Activity [2] of the same compound?
A: inactive

Q: What about the EC50 [3] of the same compound?
A: > 51.8 µM

Q: For C=CC(=O)N1CC[C@H](NS(=O)(=O)c2c(C(N)=O)[nH]c3ccc(Br)cc23)C1, which CC50 at 120 h [1] is on record?
A: 155 µM

Q: And the Activity [2]?
A: inactive

Q: What about the EC50 [3] of the same compound?
A: > 155 µM

Q: Which CC50 at 120 h [1] does the source give for O=C1Nc2ccc(Cl)cc2[C@@](C#CC2CC2)(C(F)(F)F)O1 [EFAVIRENZ] here?
A: > 6.3 µM

Q: What about the Activity [2] of the same compound?
A: inactive

Q: Which CC50 at 120 h [1] does the source give for C=CC(=O)N1CCC[C@@H](NS(=O)(=O)c2c(C(N)=O)[nH]c3ccc(Br)cc23)C1 here?
A: 43.6 µM

Q: And the Activity [2]?
A: inactive

Q: What about the EC50 [3] of the same compound?
A: > 43.6 µM

Q: Which CC50 at 120 h [1] does the source give for C=CS(=O)(=O)N[C@@H]1CCN(S(=O)(=O)c2c(C(N)=O)[nH]c3ccc(Br)cc23)C1 here?
A: 2.1 µM

Q: What about the Activity [2] of the same compound?
A: inactive

Q: And the EC50 [3]?
A: > 2.1 µM

Q: What does the source list for NC(=O)c1[nH]c2ccc(Br)cc2c1S(=O)(=O)N1CCCC1?
A: CC50 at 120 h [1]: 35.3 µM; IC50 [5]: 0.48 µM; Activity [2]: inactive; EC50 [3]: 3.6 µM

Q: With Cc1cc(C#N)cc(C)c1Oc1nc(Nc2ccc(C#N)cc2)nc(N)c1Br [ETRAVIRINE] as the compound, how does the EC50 [3] read?
A: 0.01 µM

Q: Which EC50 [3] does the source give for Cc1cc(/C=C/C#N)cc(C)c1Nc1ccnc(Nc2ccc(C#N)cc2)n1 [RILPIVIRINE] here?
A: 0.01 µM
